Data as given in patent US20080288176A1 (priority 2005, published 2008).
One block for each molecule: values may come before it.

Experiments:
[1] = Hydrolysis in rat intestinal microsomes; format: in vitro ADME
From the text: (§1) The physiologically based pharmacokinetic/pharmacodynamic model of the present invention contains a series of compartments that describe the time course of a nonsteroidal anti-inflammatory prodrug, its active metabolites and nitric oxide release in intestine, liver, kidneys, blood/plasma and heart after prodrug administration. The time course of the prodrug, its active metabolites and nitric oxide release can be simulated using a series of in vitro and in silico inputs. The stability of each component in the gastrointestinal lumen is estimated using data collected from artificial gastric and intestinal juice. Intestinal metabolism is estimated using intestinal microsomes and absorption rate is estimated using permeability data collected from a cell monolayer such as Caco-2. Hepatic elimination is estimated using liver microsomes and stability in plasma is calculated using degradation of each component in the media. Plasma protein binding can either be measured using a standardized in vitro method or it can be estimated using an in silico method. The distribution of each component in various parts of the body is estimated using an in silico method. The rate of nitric oxide release is estimated using an in vitro endothelial cell model. The time course of prodrug, its active metabolites and nitric oxide can be simulated in human and animal using this physiologically based pharmacokinetic/pharmacodynamic model provided that the corresponding in vitro and in silico data are used as inputs.
(§2) Representative in vitro tests or in silico estimates include: (a) pKa estimation or measurement; (b) Log P measurement or in silico estimation; (c) Solubility in various physiological fluids; (d) Permeability. Caco-2 and/or NOVOKIN's proprietary animal and human cell lines can be used to obtain this parameter; (e) Metabolic rate in the intestine and liver. Human or animal intestinal microsomes, S9 fraction, and cytosol can be used for this purpose. Human or animal hepatocytes, liver microsomes, S9 fraction, and cytosol can also be used; (f) Hydrolysis in human or animal plasma; (g) Serum or plasma protein binding. It can be measured in vitro or estimated in silico; (h) The rate of NO release; (i) Existing pharmacokinetic and pharmacodynamic data of NSAID or a biocompatible agent; (j) Existing NO release rate of known diazeniumdiolate if applicable; (k) Stability in gastric and intestinal environment; and (l) In silico volume of distribution estimation.
(§3) Whenever in vitro estimate is attainable, the in vitro results will be used, for example, plasma protein binding. Methods reported by Bowalgaha & Miners (2001), Martignoni et al. (2006), Tong et al. (2001) and Thulesen et al. (1999) were used for in vitro and in vivo scale-up for clearance in the intestine, absorption rate constant and hepatic clearance. The simulation begins with no material in all compartments except for the initial bolus in one compartment (typically the stomach compartment). The simulation then estimates the changing distribution of the material with time.

[2] = Hydrolysis in human intestinal microsomes; format: in vitro ADME
From the text: as §1
The selection of in vitro tests is designed to provide parameters for the above mentioned model. The use of an inappropriate test would result in wrong predictions. For example, Knaus et al. (2005) used guinea pig serum and porcine esterases to hydrolyze their O^2-substituted diazeniumdiolate derivatives of ASPIRIN, as disclosed in U.S. Ser. No. 60/681,842. These tests provided very little information in terms of in vivo human NO-NSAID metabolism rate and the extent to which metabolic conversion to NO donor and NSAID occurred. […] The half-life values were less than one minute. Based on these observations, it has become apparent that prior to entering the systemic circulation, it is likely that the NO-NSAID would have been hydrolyzed in the enterocytes and little or no NO-NSAID would have been detected in the blood stream. Furthermore, the release of NO will commence immediately once the NO donor is detached from the NSAID.
as §2, §3

[3] = Hydrolysis in rat liver microsomes; format: in vitro ADME
From the text: as §1, §2, §3

[4] = Hydrolysis in human liver microsomes; format: in vitro ADME
From the text: as §1, with “The” for “The physiologically based pharmacokinetic/pharmacodynamic model of the present invention contains a series of compartments that describe the time course of a nonsteroidal anti-inflammatory prodrug, its active metabolites and nitric oxide release in intestine, liver, kidneys, blood/plasma and heart after prodrug administration. The”
The selection of in vitro tests is designed to provide parameters for the above mentioned model. The use of an inappropriate test would result in wrong predictions.
as §2
The simulation begins with no material in all compartments except for the initial bolus in one compartment (typically the stomach compartment). The simulation then estimates the changing distribution of the material with time.

[5] = Stability in gastric environment (gastric decay rate); format: in vitro ADME
From the text: as §1, §2

[6] = Stability in intestinal lumen (decay rate); format: in vitro ADME
From the text: as §1, §2

Hydrolysis in rat plasma = format: in vitro ADME
From the text: as §1, §2

[7] = Hydrolysis in various enzymatic preparations (rat and human intestinal and liver microsomes)
[8] = Chemical stability (loss of diazeniumdiolate) in phosphate buffer; format: physicochemical
Experimental: They varied only in the nitrogen substituent of the amino acid, i.e. free amine (1), acetyl (2) and pivaloyl (3) groups. Their chemical stability was evaluated in phosphate buffer at different pH's over a 30 minute period (Table 11).

[9] = Enzymatic hydrolysis in liver microsomal preparations (LC-MS); format: in vitro ADME; conditions: for Time to complete hydrolysis (cleavage of the diazeniumdiolate): liver microsomal preparations
Experimental: The sensitivity of the prodrug 3 towards enzymatic hydrolysis was evaluated by LC-MS. Liver and intestinal microsomal preparations were used. […] However, these rates were slower than the enzymatic hydrolysis rates determined for the conversion of 1→4 and 2→5 (complete hydrolysis observed in 10 and 30 minutes respectively in liver microsomal preparations).

male Wistar rats [10] = assay: Gastric ulcer index after oral dosing; format: in vivo, rat; conditions: for Ulcer Indices, Mean: oral gavage, naproxen 250 mg/kg or molar equivalent (ROF 250 mg/kg), 6 h after dosing, mean aggregate gastric ulcer length; for Ulcerogenicity (in words): oral, 6 h
Experimental: (§4) Table 1 is a summary of the protocol for a study which was conducted in male Wistar rats weighing 275-300 grams. The animals were allowed to acclimatize for at least five days prior to the commencement of the study. The study protocol was approved by the local animal ethics committee.
(§5) The animals were fasted overnight prior to test substance administration. The test substance was administered orally by gavage on the morning of the study day. All test animals had blood collected during the test period in both EDTA (ethylenediaminetetraacetic acid) tubes and SST (Serum Separator Tubes) at 1, 3 and 6 hours after dosing. Blood was collected into EDTA tubes only at 1 and 3 hours by tail tip amputation. Volume of blood collected was between 0.5 and 1 mL at each of these collections. The final collection was by puncture of the abdominal vena cava under isoflurane general anesthesia. Final blood collection was targeted as follows: 1st EDTA #1—1.5 mL; 2nd SST—1.5 mL; 3rd EDTA #2—as much as possible.
Each animal from all groups underwent a full necropsy under the supervision of a board certified veterinary pathologist. The stomach of each rat was cut along the greater curvature, contents removed into a polypropylene (Falcon) tube, the mucosa rinsed with saline and any obvious ulcers or erosions were measured along the longest axis. This measurement was recorded for each ulcer or erosion observed in each stomach. The falcon tubes and their contents were frozen at −80° C. and shipped to Novokin on dry ice for analysis.
The aggregate length of all gastric ulcers found in a given animal was calculated. The mean aggregate ulcer length across animals in a group was calculated. This mean value was reported as the ulcer index for that group.
The ulcer index of each modified drug was compared with the ulcer index of its associated parent drug and the controls using analysis of variance and Duncan's multiple range test for pairwise comparisons. Statistical analysis was done using SAS® (SAS Institute Inc., Cary, N.C.).

[11] = Serum nitrate concentration (NO release) after oral dosing; format: in vivo, rat; conditions: male Wistar rats, oral gavage, at 6 hours
Experimental: as §4, §5
EDTA samples were centrifuged, and the plasma portion was collected and frozen at −80° C. SST samples were incubated at 37° C. for approximately 45 minutes, centrifuged, and the serum was collected and frozen at −80° C. until analysis.

[12] = system: cardiac tissue prostacyclin (PGI2) to thromboxane A2 (TXB2) ratio; assay: Cardiac tissue prostacyclin to thromboxane ratio; format: in vivo, rat; conditions: male Wistar rats; for PGI2/TXA2 ratio comparison (in words): cardiac tissue; for Cardiac Tissue PGI2/TXB2, Mean: oral gavage, heart removed 6 hours after dosing
From the text: (§6) Myocardial infarction and ischemic events in high risk patients led one of the most popular COX-2 inhibitors to its demise (Bresalier et al., 2005). Non-selective NSAIDS may also cause similar problems due to their ability to inhibit COX-2. […] Adenosine diphosphate (ADP) generation is an indicator of myocardial infarction which has no connection with the arachidonic acid cascade (Borna et al., 2005). […] Long term NSAID use has been linked to kidney damage and hypertension (Zafirovska et al., 1993). […] This was associated with an increase in the urine the ratio of alanine-amino-peptidase (AAP) and creatinine.
as §4
All rats were euthanized by removal of the heart 6 hours after initial dosing, following final blood collections. Immediately after terminal blood collections were complete, the thorax was opened and the heart removed. The heart was cut in half longitudinally. Half of the heart was placed in formalin for histological examination. The other half was quickly rinsed in saline and then freeze-clamped (crushed between the jaws of a pair of modified tongs, cooled by liquid nitrogen). An entire kidney was freeze-clamped. The other kidney was left in situ for examination by the pathologist. Freeze-clamped tissues were wrapped in labeled aluminum foil and stored in liquid nitrogen until they could be transferred to a −80° C. freezer. Freeze-clamped tissues were shipped on dry ice to NOVOKIN for analysis.

male Wistar rats [13] = assay: Urine alanine aminopeptidase to creatinine ratio (proximal tubular kidney damage); format: in vivo, rat; conditions: for AAP/Cr (urine alanine aminopeptidase to creatinine), Mean: oral gavage, urine collected for 6 hours
From the text: as §6, §4
(§7) All test animals, housed in metabolic cages, had urine collected over wet ice for 6 hours after dosing. Aliquots of the urine from each animal were collected to determine creatinine concentration. The remainder of the urine was centrifuged at 1000 g for 10 minutes. The supernatant was collected and mixed with analytical grade ethylene glycol at a rate of 0.4 mL ethylene glycol per 1 mL urine supernatant. The ethylene glycol/urine mixture was stored at −80° C. until analysis.

male Wistar rats [14] = assay: Urine N-acetylglucosaminidase to creatinine ratio (distal tubule toxicity); format: in vivo, rat; conditions: oral gavage, urine collected for 6 hours
Experimental: as §4, §7

Compound: COc1ccc2cc(C(C)C(=O)OCOC(=O)CCC(NC(=O)C(C)(C)C)C(=O)OCON=[N+]([O-])N(C)C)ccc2c1 (stereo not shown) [CMD 113]
intestinal molar percent conversion to Naproxen [1]: 62%
intestinal microsomal activity ([1]; model input): 2 mL/min/organ
intestinal molar percent conversion to Naproxen [2]: 75%
intestinal microsomal activity ([2]; model input): 4813 mL/min/organ
liver molar percent conversion to Naproxen [3]: 90%
liver microsomal activity ([3]; model input): 6545 mL/min/organ
liver molar percent conversion to Naproxen [4]: 72%
liver microsomal activity ([4]; model input): 434763 mL/min/organ
gastric decay rate constant ([5]; Human): 0 /mint
gastric decay rate constant ([5]; Rat): 0 /mint
intestinal lumen decay rate constant ([6]; Human): 0.2 min⁻¹
intestinal lumen decay rate constant ([6]; Rat): 0.2 min⁻¹
Hydrolysis of the NO-AA in rat plasma (in words) (Hydrolysis in rat plasma; NO-AA formed from the prodrug): relatively fast rate
plasma decay rate constant (Hydrolysis in rat plasma; Rat): 1.2 min⁻¹
NO-AA half-life in plasma (Hydrolysis in rat plasma; Rat, NO-AA formed from the prodrug): 9.2 min
Stability of the NO-AA formed (in words) ([7]; intestinal and liver microsomes of human and rats): relatively stable
Initial loss of the prodrug candidate (in words) ([7]; various enzymatic preparations): rapid initial loss

Compound: COc1ccc2cc(C(C)C(=O)OCON=[N+]([O-])N(C)C)ccc2c1 (stereo not shown) [DMA-NO-NAP, dimethylamino-diazeniumdiolate-naproxen]
Ulcer Indices, Mean (male Wistar rats [10]): 1.695
Ulcerogenicity (in words) (male Wistar rats [10]): somewhat less ulcerogenic
Serum Nitrate Concentrations, Mean [11]: 768.000
PGI2/TXA2 ratio comparison (in words) [12]: achieving statistical significance (p<0.05)
Cardiac Tissue PGI2/TXB2, Mean [12]: 5.157
AAP/Cr (urine alanine aminopeptidase to creatinine), Mean (male Wistar rats [13]): 132.412
Urine NAG/Cr values, Mean (male Wistar rats [14]): 20.403

Compound: CS(=O)(=O)c1ccc(C2=C(c3ccccc3)C(=O)OC2)cc1 [ROF, Rofecoxib]
Ulcer Indices, Mean (male Wistar rats [10]): 0.000
Ulcerogenicity (in words) (male Wistar rats [10]): not significantly different from vehicle
Serum Nitrate Concentrations, Mean [11]: 55.818
PGI2/TXA2 ratio comparison (in words) [12]: lower ratios than vehicle
Cardiac Tissue PGI2/TXB2, Mean [12]: 2.765
Urine AAP/creatinine ratio change (in words) (male Wistar rats [13]): did cause an increase
AAP/Cr (urine alanine aminopeptidase to creatinine), Mean (male Wistar rats [13]): 538.367
Urine NAG/Cr values, Mean (male Wistar rats [14]): 24.176

Continued, values first:

Chemical stability (in words) ([8]; pH range 2.5-7.0, 30 minute period): underwent rapid degradation
Time to complete hydrolysis (cleavage of the diazeniumdiolate) [9]: 10 min
Compound: COc1ccc2cc(C(C)C(=O)OC3CNC(C(=O)OCON=[N+]([O-])N(C)C)C3)ccc2c1 (stereo not shown) [Compound 1]

Stability (loss of diazeniumdiolate), pH 2.5 ([8]; 30 min, pH 2.5): ✓
Stability (loss of diazeniumdiolate), pH 5.0 ([8]; 30 min, pH 5.0): ✓
Chemical stability (in words) ([8]; pH 2.5-5.0, 30 minute period): stable
Chemical stability (in words) ([8]; pH 7.0, 30 minute period): much slower rate of decomposition
Time to complete hydrolysis (cleavage of the diazeniumdiolate) [9]: 30 min
Compound: COc1ccc2cc(C(C)C(=O)OC3CC(C(=O)OCON=[N+]([O-])N(C)C)N(C(C)=O)C3)ccc2c1 (stereo not shown) [Compound 2]

Time to complete hydrolysis (initial cleavage of both esters) ([9]; liver microsomes): 30 min
Compound: COc1ccc2cc(C(C)C(=O)OCOC(=O)CCC(NC(C)=O)C(=O)OCOC(=O)C(C)c3ccc4cc(OC)ccc4c3)ccc2c1 (stereo not shown) [Compound 9]
